# Test results reported in ChEMBL document CHEMBL3046472, “QSAR modeling of photosynthesis-inhibiting nostoclide derivatives” (Pest Manag Sci, 2010).
# The source made the active and inactive calls. The calls are words filed in the database; no cut-off is given here.
# Biological target: Cytochrome b6-f complex subunit 4 (Spinacia oleracea) (UniProt P00166)
# Assay: Inhibition of photosynthetic electron transport protein complex in Spinacia oleracea (spinach) leaf thylakoid membranes up to 100 uM measured at 30 seconds intervals for 10 min
# Chain of Cytochrome b6-f complex subunit 4 (Spinacia oleracea) (P00166 whole entry, looked up, one chain of several): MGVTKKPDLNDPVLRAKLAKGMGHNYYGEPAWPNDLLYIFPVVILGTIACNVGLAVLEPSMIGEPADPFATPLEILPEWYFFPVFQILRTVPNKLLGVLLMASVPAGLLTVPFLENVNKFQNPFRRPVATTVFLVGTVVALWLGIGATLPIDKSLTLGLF
row,inhibition,Compound
1,inactive,O=C1O/C(=C\c2ccccc2O)C=C1Cc1ccccc1
2,inactive,O=C1O/C(=C\c2ccc(Cl)cc2)C=C1Cc1ccccc1
3,inactive,O=C1O/C(=C\c2ccc3c(c2)OCO3)C=C1Cc1ccccc1
4,inactive,COc1ccc(/C=C2/C=C(Cc3ccccc3)C(=O)O2)cc1O
5,inactive,CN(C)c1ccc(/C=C2/C=C(Cc3ccccc3)C(=O)O2)c(Cl)c1
6,inactive,N#Cc1ccc(/C=C2/C=C(Cc3ccccc3)C(=O)O2)cc1
7,inactive,N#Cc1cccc(/C=C2/C=C(Cc3ccccc3)C(=O)O2)c1
8,inactive,CN(C)c1ccc(/C=C2/C=C(Cc3ccccc3)C(=O)O2)cc1
9,inactive,O=C1O/C(=C\c2ccc(-c3ccccc3)cc2)C=C1Cc1ccccc1
10,inactive,O=C1O/C(=C\c2cccc(O)c2)C=C1Cc1ccccc1
11,inactive,O=C1O/C(=C\c2ccc(O)cc2)C=C1Cc1ccccc1
12,inactive,Cc1ccc(/C=C2/C=C(Cc3ccccc3)C(=O)O2)cc1
13,inactive,O=C1O/C(=C\c2ccc(Br)cc2)C=C1Cc1ccccc1
